Measurements reported in patent US20130236416A1, “SURFACE MODIFIED COLLOIDAL PARTICLES” (CLEMSON UNIVERSITY, priority 2012, published 2013).
Several values for one entry are separate records, joined by “and”; a condition that tells them apart may be missing. Equal values may be shown once. Read-outs that look alike come from different tables or passages of the source. One block for each molecule: values may come before it.

Experiments:
[1] = cited from earlier work
CARDO complex = biological target: T1, CARDO complex (Metapseudomonas resinovorans, UniProt Q8G8B6); experiment: Temperature dependence of 9H-carbazole conversion by purified CARDO complex; type: biochemical, Pseudomonas resinovorans CA10; settings: 5° C.
T1 construct: (HIS)6 (C); made in house; host or cells: Escherichia coli BL21(DE3) Rosetta
Description: Purified CARDO complex activity was monitored using a modified enzymatic assay previously described [H. Nojiri, et al. Structure of the terminal oxygenase component of angular dioxygenase, carbazole 1,9a-dioxygenase. Journal of Molecular Biology, 351(2):355-370, 2005.]. The purified enzymes CARDO-F, CARDO-O and CARDO-R were incubated in 20 μL Buffer D (25 mM Tris-HCl pH 7.5 and 1 mM NADH) containing 1 mM carbazole dissolved in DMSO at varying temperatures from 30° C. to 5° C. An aliquot was removed from the reaction at the indicated times and the absorbance of the reaction was determined with a NanoDrop spectrophotometer (Thermo Scientific) at 295 nm.

P. resinovorans CA10 = experiment: Proliferation of P. resinovorans CA10 on carbazole-based media; type: cell-based, Pseudomonas resinovorans CA10; settings: 96 hour incubation
Description: Control growth performed with glucose medium (Δ).
The bioavailability of the hydrophobic metabolites is also critical to understanding metabolic enzymes that bind to them[40]. […] FIG. 3 presents the proliferation of P. resinovorans CA10 with both 9H-carbazole and PA/AC particle based media during a 96 hour incubation.

[2] = Relative fluorescence quantum yield versus reference dye HITCI in methanol; type: physicochemical
Description: Absorption spectra were taken using a Perkin-Elmer Lambda 900 UV/VIS/NIR spectrophotometer. Photoluminescence (PL) spectra were collected using a Thermo Oriel xenon arc lamp (Thermo Oriel 66 902) mated with a Thermo Oriel Cornerstone 7 400 1/8m monochromator (Thermo Oriel 7400) and a Horiba Jobin-Yvon MicroHR spectrometer coupled to a Synapse CCD detector. Quantum yields (φ) of the dyes and modified particles were determined relative to the reference dye 1,10,3,3,30,30-hexamethylindotricarbocyanine iodide (HITCI) in methanol, which has a fluorescence quantum yield of φref=0.12, [51,20] employing established procedures.

T1 sequence (Q8G8B6 whole entry, one chain of several): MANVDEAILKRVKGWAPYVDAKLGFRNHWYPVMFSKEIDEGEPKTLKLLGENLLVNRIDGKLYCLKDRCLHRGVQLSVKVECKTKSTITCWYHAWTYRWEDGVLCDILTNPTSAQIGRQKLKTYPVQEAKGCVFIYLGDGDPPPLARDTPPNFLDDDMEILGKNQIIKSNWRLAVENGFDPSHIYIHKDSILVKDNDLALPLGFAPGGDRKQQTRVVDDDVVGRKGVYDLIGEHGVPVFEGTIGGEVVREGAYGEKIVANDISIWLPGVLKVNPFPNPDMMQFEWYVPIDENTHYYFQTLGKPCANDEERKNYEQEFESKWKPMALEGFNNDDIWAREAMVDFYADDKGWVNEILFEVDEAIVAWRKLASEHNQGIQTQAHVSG

SMILES: CN1C(=CC=CC=CC=CC2=[N+](C)c3ccccc3C2(C)C)C(C)(C)c2ccccc21.[I-] [HITCI, 1,10,3,3,30,30-hexamethylindotricarbocyanine iodide]
fluorescence quantum yield φref ([1]; reference dye in methanol): 0.12

SMILES: c1ccc2c(c1)[nH]c1ccccc12 [9H-carbazole]
conversion of carbazole by purified CARDO complex (CARDO complex): significantly retarded
growth of P. resinovorans CA10 on the substrate-based medium (P. resinovorans CA10): consistent growth

relative fluorescence quantum yield φ [2]: 0.044±0.004 and 0.044
SMILES: CC1(C)C(/C=C/C=C/C=C/C=C2/N(CCCN=[N+]=[N-])c3ccc4ccccc4c3C2(C)C)=[N+](CCCCS(=O)(=O)[O-])c2ccc3ccccc3c21 [azICG, 4-(2-(1E,3E,5E,7E)-7-[3-(3-Azidopropyl)-1,1-Dimethyl-1,3-Dihydro-2H-Benzo[e]Indol-2-Ylidene]-1,3,5-Heptatrienyl-1,1-Dimethyl-1H-Benzo[e]Indolium-3-yl)-1-Butanesulfonate]

relative fluorescence quantum yield φ [2]: 0.036±0.002
SMILES: CC1(C)C(/C=C/C=C/C=C/C=C2\N(CCCCS(=O)(=O)O)c3ccc4ccccc4c3C2(C)C)=[N+](CCCCS(=O)(=O)[O-])c2ccc3ccccc3c21 [ICG, Indocyanine green]
yield of triplet formation through S1-T1 intersystem-crossing ([1]; free ICG in an aqueous albumin solution): 11%
yield of triplet formation through S1-T1 intersystem-crossing ([1]; free ICG in water): 14%
fluorescence quantum yield of free ICG in water ([1]; water, ICG concentration ca. 2.7×10^−3 mol·dm^−3): ca. 4×10^−5
